The record followed here is BindingDB's records for doi:10.1021/jm000991r (University of Bologna, 2001).

Sequence of Cholinesterase (P06276 whole entry): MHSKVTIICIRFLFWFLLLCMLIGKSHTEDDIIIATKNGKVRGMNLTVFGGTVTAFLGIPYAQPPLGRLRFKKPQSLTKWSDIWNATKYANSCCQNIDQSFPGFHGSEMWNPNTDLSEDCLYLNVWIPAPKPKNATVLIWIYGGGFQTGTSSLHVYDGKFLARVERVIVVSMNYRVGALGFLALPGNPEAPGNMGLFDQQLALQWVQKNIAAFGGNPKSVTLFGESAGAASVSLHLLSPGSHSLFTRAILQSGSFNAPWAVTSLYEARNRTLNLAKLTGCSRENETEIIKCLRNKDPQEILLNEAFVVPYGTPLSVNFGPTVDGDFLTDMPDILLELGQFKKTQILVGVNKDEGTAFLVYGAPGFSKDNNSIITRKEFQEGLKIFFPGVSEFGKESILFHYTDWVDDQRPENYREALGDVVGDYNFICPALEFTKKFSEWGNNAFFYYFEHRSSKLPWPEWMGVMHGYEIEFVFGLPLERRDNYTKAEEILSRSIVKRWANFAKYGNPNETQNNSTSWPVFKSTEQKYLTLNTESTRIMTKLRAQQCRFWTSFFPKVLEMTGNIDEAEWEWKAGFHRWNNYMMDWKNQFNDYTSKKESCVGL

This experiment addresses Cholinesterase (Homo sapiens, UniProt P06276). The experiment can be described thus: Inhibitory activity against butyrylcholinesterase (BChE) in human […].
As a reminder, the IC50 is the concentration at which inhibition is half-maximal. A high value points to weaker potency in that assay. Compound `CNC(=O)Oc1cccc2c1OC[C@@H]1CCN(C)[C@H]21` [(2S,6R)-3-methyl-8-oxa-3-azatricyclo[7.4.0.0^{2,6}]trideca-1(13),9,11-trien-10-yl N-methylcarbamate] showed an IC50 of 0.054 µM.
On to `O=C(CCCCCCC(=O)NCCCCCCN1CC[C@H]2COc3ccccc3[C@H]21)NCCCCCCN1CC[C@H]2COc3ccccc3[C@H]21`, for which the IC50 came to 0.912 µM.
In turn, `CNC(=O)Oc1ccc2c(c1)OC[C@@H]1CC[N+](C)(C)[C@H]21` returned an IC50 of 2.95 µM.
Compound `CNC(=O)Oc1ccc2c(c1)OC[C@@H]1CCN(C)[C@H]21` [(3aR,9bS)-1-methyl-1,2,3,3a,4,9b-hexahydrochromeno[4,3-b]pyrrol-7-yl methylcarbamate] had an IC50 of 3.55 µM.
For `CN1CC[C@H]2COc3c(O)cccc3[C@H]21` the value was 794 µM; for `CNC(=O)Oc1ccc2c(c1)[C@@H]1[C@@H](CCN1C)CO2`, 10.2 µM.
